Source: patent publication US6498253B1, “Acylated aminophenylsulfonylureas, processes for their preparation and their use as herbicides and plant growth regulators” (priority 1994, dated 2002)

How the values were obtained:
[1] = test system: Sinapis alba, Chrysanthemum segetum, Avena sativa, Stellaria media, Alopecurus myosuroides and Lolium multiflorum; assay: Herbicidal action, pre-emergence (greenhouse pot test); type: in vivo; conditions: applied pre-emergence, 0.3 kg and less of active substance per hectare; rated visually after 3 to 4 weeks vs untreated controls
Excerpt: Seeds or pieces or rhizome of mono- and dicotyledon weed plants were laid out in sandy loam soil in plastic pots and covered with soil. The compounds according to the invention, formulated in the form of wettable powders or emulsion concentrates, were then applied to the surface of the covering soil as an aqueous suspension or emulsion in various dosages, with an amount of water applied, when converted, of 600 to 800 l/ha.
After the treatment, the pots were placed in a greenhouse and kept under good growth conditions for the weeds. The plant damage or emergence damage was rated visually after emergence of the test plants after a test period of 3 to 4 weeks in comparison with untreated controls.

[2] = test system: Sinapis alba, Stellaria media, Alopecurus myosuroides and Lolium multiflorum, Chrysanthemum segetum and Avena sativa; assay: Herbicidal action, post-emergence (greenhouse pot test); type: in vivo; conditions: applied postemergence in three-leaf stage, 0.3 kg or less of active substance per hectare; rated visually after about 3 to 4 weeks vs untreated controls
Protocol: Seeds or pieces of rhizome of mono- and dicotyledon weeds were laid out in sandy loam soil in plastic pots, covered with soil and grown in a greenhouse under good growth conditions. Three weeks after sowing, the test plants were treated in the three-leaf stage.
The compounds according to the invention, formulated as wettable powders or as emulsion concentrates, were sprayed onto the green parts of plants in various dosages with an amount of water applied of, when converted, 600 to 800 l/ha, and after the test plants had stood in a greenhouse for about 3 to 4 weeks under optimum growth conditions, the action of the preparations was rated visually in comparison with untreated controls. The compositions according to the invention also show a good herbicidal activity against a broad spectrum of economically important graminaceous weeds and broad-leafed weeds when applied post-emergence.

| SMILES | herbicidal action, pre-emergence [1] | herbicidal action, post-emergence [2] | melting point |
| --- | --- | --- | --- |
| CCNC(=O)Nc1ccc(C(=O)N(C)C)c(S(=O)(=O)NC(=O)Nc2nc(OC)cc(OC)n2)c1 [72 from Table 1] | very good herbicidal action | very good herbicidal action |  |
| COC(=O)Nc1ccc(C(=O)N(C)C)c(S(=O)(=O)NC(=O)Nc2nc(OC)cc(OC)n2)c1.[Na] [Example 21 from Table 2, N-[(4,6-dimethoxypyrimidin-2-yl)-aminocarbonyl]-2-dimethylaminocarbonyl-5-methoxycarbonylamino-benzenesulfonamide sodium salt] |  | very good herbicidal action | 187 to 191 °C (dec.) |
| COc1cc(OC)nc(NC(=O)[N-]S(=O)(=O)c2cc(NC(=O)C(C)C)ccc2C(=O)N(C)C)n1.[Na+] [Example 16 from Table 2] |  | very good herbicidal action |  |
| COC(=O)Nc1ccc(C(=O)N(C)C)c(S(=O)(=O)NC(=O)Nc2nc(Cl)cc(OC)n2)c1 [55 from Table 1] | very good herbicidal action | very good herbicidal action |  |
| COC(=O)Nc1ccc(C(=O)N(C)C)c(S(=O)(=O)[N-]C(=O)Nc2nc(C)nc(OC)n2)c1.[Na+] [Example 20 from Table 2] |  | very good herbicidal action |  |
| COC(=O)Nc1ccc(C(=O)N(C)C)c(S(=O)(=O)[N-]C(=O)Nc2nc(C)nc(OC)n2)c1.[Na+] [20 from Table 2] | very good herbicidal action |  |  |
| COc1cc(OC)nc(NC(=O)[N-]S(=O)(=O)c2cc(NC(=O)C(C)C)ccc2C(=O)N(C)C)n1.[Na+] [16 from Table 2] | very good herbicidal action |  |  |
| COC(=O)Nc1ccc(C(=O)N(C)C)c(S(=O)(=O)NC(=O)Nc2nc(OC)cc(OC)n2)c1 [53 from Table 1] | very good herbicidal action | very good herbicidal action |  |
| COc1cc(OC)nc(NC(=O)NS(=O)(=O)c2cc(NC(=O)C3CC3)ccc2C(=O)N(C)C)n1 [115 from Table 1] | very good herbicidal action | very good herbicidal action |  |
| COc1cc(OC)nc(NC(=O)NS(=O)(=O)c2cc(NC(=O)OCCCl)ccc2C(=O)N(C)C)n1 [65 from Table 1] | very good herbicidal action | very good herbicidal action |  |
| COc1cc(OC)nc(NC(=O)[N-]S(=O)(=O)c2cc(NC=O)ccc2C(=O)N(C)C)n1.[Na+] [1 from Table 2] | very good herbicidal action |  |  |
| COc1cc(OC)nc(NC(=O)[N-]S(=O)(=O)c2cc(NC(C)=O)ccc2C(=O)N(C)C)n1.[Na+] [7 from Table 2] | very good herbicidal action |  |  |
| COc1cc(OC)nc(NC(=O)[N-]S(=O)(=O)c2cc(NC(C)=O)ccc2C(=O)N(C)C)n1.[Na+] [Example 7 from Table 2] |  | very good herbicidal action |  |
| COc1cc(C)nc(NC(=O)NS(=O)(=O)c2cc(NC(=O)C(F)(F)F)ccc2C(=O)N(C)C)n1 [40 from Table 1] | very good herbicidal action | very good herbicidal action |  |
| CNS(=O)(=O)Nc1ccc(C(=O)N(C)C)c(S(=O)(=O)NC(=O)Nc2nc(OC)cc(OC)n2)c1 [87 from Table 1] | very good herbicidal action | very good herbicidal action |  |
| COC(=O)Nc1ccc(C(=O)N(C)C)c(S(=O)(=O)NC(=O)Nc2nc(C)nc(OC)n2)c1 [58 from Table 1] | very good herbicidal action | very good herbicidal action |  |
| COC(=O)Nc1ccc(C(=O)N(C)C)c(S(=O)(=O)[N-]C(=O)Nc2nc(Cl)cc(OC)n2)c1.[Na+] [Example 22 from Table 2] |  | very good herbicidal action |  |
| CCC(=O)Nc1ccc(C(=O)N(C)C)c(S(=O)(=O)NC(=O)Nc2nc(OC)cc(OC)n2)c1 |  |  | 135 to 140 °C (dec.) |

| SMILES | herbicidal action, pre-emergence [1] | herbicidal action, post-emergence [2] | melting point |
| --- | --- | --- | --- |
| COc1cc(OC)nc(NC(=O)[N-]S(=O)(=O)c2cc(NC(=O)C(F)(F)F)ccc2C(=O)N(C)C)n1.[Na+] [Example 17 from Table 2] |  | very good herbicidal action |  |
| CCC(=O)Nc1ccc(C(=O)N(C)C)c(S(=O)(=O)NC(=O)Nc2nc(OC)cc(OC)n2)c1.[Na] [Example 12 from Table 2, N-[(4,6-dimethoxypyrimidin-2-yl)-aminocarbonyl]-2-dimethylaminocarbonyl-5-propionylamino-benzenesulfonamide sodium salt] |  | very good herbicidal action | 212 °C (dec.) |
| CCC(=O)Nc1ccc(C(=O)N(C)C)c(S(=O)(=O)NC(=O)Nc2nc(OC)cc(OC)n2)c1 [22 from Table 1] | very good herbicidal action | very good herbicidal action |  |
| COc1cc(OC)nc(NC(=O)NS(=O)(=O)c2cc(NC(=O)C(C)(C)C)ccc2C(=O)N(C)C)n1 [30 from Table 1] | very good herbicidal action | very good herbicidal action |  |
| CCOC(=O)Nc1ccc(C(=O)N(C)C)c(S(=O)(=O)[N-]C(=O)Nc2nc(OC)cc(OC)n2)c1.[Na+] [26 from Table 2] | very good herbicidal action |  |  |
| COc1cc(OC)nc(NC(=O)NS(=O)(=O)c2cc(NC=O)ccc2C(=O)N(C)C)n1.[Na] [Example 1 from Table 2, N-[(4,6-dimethoxypyrimidin-2-yl)-aminocarbonyl]-2-dimethylaminocarbonyl-5-formylamino-benzenesulfonamide sodium salt] |  | very good herbicidal action |  |
| COc1cc(OC)nc(NC(=O)NS(=O)(=O)c2cc(NC=O)ccc2C(=O)N(C)C)n1 [8 from Table 1] | very good herbicidal action | very good herbicidal action |  |
| COc1cc(OC)nc(NC(=O)NS(=O)(=O)c2cc(NC(C)=O)ccc2C(=O)N(C)C)n1 [15 from Table 1] | very good herbicidal action | very good herbicidal action |  |
| COC(=O)Nc1ccc(C(=O)N(C)C)c(S(=O)(=O)[N-]C(=O)Nc2nc(OC)cc(OC)n2)c1.[Na+] [21 from Table 2] | very good herbicidal action |  |  |
| COc1nc(NC(=O)NS(=O)(=O)c2cc(NC(=O)C(F)(F)F)ccc2C(=O)N(C)C)nc(OC)n1 [44 from Table 1] | very good herbicidal action | very good herbicidal action |  |
| CCOC(=O)Nc1ccc(C(=O)N(C)C)c(S(=O)(=O)NC(=O)Nc2nc(OC)cc(OC)n2)c1 [59 from Table 1] | very good herbicidal action | very good herbicidal action |  |
| COc1cc(OC)nc(NC(=O)NS(=O)(=O)c2cc(NC(=O)C(C)C)ccc2C(=O)N(C)C)n1 [25 from Table 1] | very good herbicidal action | very good herbicidal action |  |
| CCN(C)C(=O)c1ccc(NC=O)cc1S(=O)(=O)NC(=O)Nc1nc(OC)cc(OC)n1 [116 from Table 1] | very good herbicidal action | very good herbicidal action |  |
| COc1cc(OC)nc(NC(=O)NS(=O)(=O)c2cc(NS(C)(=O)=O)ccc2C(=O)N(C)C)n1 [77 from Table 1] | very good herbicidal action | very good herbicidal action |  |
| CCOC(=O)Nc1ccc(C(=O)N(C)C)c(S(=O)(=O)[N-]C(=O)Nc2nc(OC)cc(OC)n2)c1.[Na+] [Example 26 from Table 2] |  | very good herbicidal action |  |
| COC(=O)Nc1ccc(C(=O)N(C)C)c(S(=O)(=O)[N-]C(=O)Nc2nc(Cl)cc(OC)n2)c1.[Na+] [22 from Table 2] | very good herbicidal action |  |  |
| COc1cc(OC)nc(NC(=O)[N-]S(=O)(=O)c2cc(NC(=O)C(F)(F)F)ccc2C(=O)N(C)C)n1.[Na+] [17 from Table 2] | very good herbicidal action |  |  |
